In brackets after ≈: the same amount, converted by molar mass. Where a SMILES comes first, the peptide text is derived from it.
Test: solubility in water at room temperature
Format: physicochemical
From the text: The two pairs DD/LL-methionylmethionine and DL/LD-methionylmethionine are diastereomeric relative to one another and have different physical data. […] These mixtures can be incorporated/dissolved simply in an aqueous phase or an aqueous surfactant phase of a cosmetic composition.

| Structure (SMILES) | solubility at room temperature in water |
| --- | --- |
| CSCC[C@H](NC(=O)[C@@H](N)CCSC)C(=O)O [DD/LL-methionylmethionine, methionylmethionine] (H-Met-Met-OH) | 21.0 mg/mL (≈ 74.9 mM) |
| CSCC[C@H](NC(=O)[C@@H](N)CCSC)C(=O)O [DL/LD-methionylmethionine, methionylmethionine] (H-Met-Met-OH) | 0.4 mg/mL (≈ 1.43 mM) |
